Test results: EPA's ToxValDB 9.5 (doi:10.2903/j.efsa.2005.43r)
Converted amounts (≈) assume the structure as drawn.

Tests used:
Anas platyrhynchos = details: reproductive
Apis mellifera = details: acute, duration: 24 hours, mortality
Canidae = details: chronic; duration: 1 years; oral; Dog Other; hematological
Colinus virginianus = details: acute, oral, mortality
Daphnia magna = details: chronic/long-term; duration: 21 days; reproduction
Oncorhynchus mykiss = details: acute; duration: 96 hours; mortality
Pimephales promelas = details: chronic/long-term; duration: 36 days
Tagia sp. = details: acute; duration: 14 days; mortality
Mesograpta sp. = test: LR50; higher = less toxic; details: chronic/long-term, mortality

## Cc1nc(N(C)C)nc(OC(=O)N(C)C)c1C [Pirimicarb]
Anas platyrhynchos
  NOEC: 12.1 mg/kg-day
Apis mellifera; dermal
  LD50: 53.1 µg/piece
Apis mellifera; oral, unspecified
  LD50: 4 µg/piece
Canidae
  NOAEL: 3.5 mg/kg-day
Colinus virginianus; duration: 5 days, diet
  LC50: 394 mg/kg-day
Colinus virginianus; gavage
  LD50: 20.9 mg/kg
Daphnia magna
  NOEC: 0.0009 mg/L
Oncorhynchus mykiss
  LC50: 79 µg/mL (≈ 332 µM)
Pimephales promelas
  NOEC: 10 mg/L
Rattus norvegicus; acute, oral, F, mortality
  LD50: 142 mg/kg
Rattus norvegicus; acute, oral, gavage, clinical signs
  NOAEL: 10 mg/kg-day
Rattus norvegicus; reproduction developmental
  NOEC: 81.8 mg/kg-day
Tagia sp.
  LC50: > 60 mg/kg
Mesograpta sp.; duration: 16 days
  LR50: 14.6 g/ha
Mesograpta sp.; duration: 28 days
  LR50: 14.6 g/ha
